The subject of this assay is pancreatic islets obtained from adipose tissue-derived cells. The assay can be described thus: Insulin secretion from pancreatic islets obtained from adipose tissue-derived cells, ELISA of culture supernatant. Conditions: 2 hours; for secretion of insulin: RPMI 1640 containing 3.3 mM or 16.7 mM glucose, FIG. 17. The class given is cell-based, Human. How it is done: The insulin level and the C-peptide level in the culture supernatant were measured using ELISA kit (Mercodia).
(In general: ELISA stands for enzyme-linked immunosorbent assay.)

This is an account of results in patent publication US9428733B2, “Method for obtaining pancreatic endocrine cells from adipose tissue-origin cells” (AKIFUMI MATSUYAMA, priority 2005, dated 2016).

As for `Cn1c(=O)c2[nH]cnc2n(C)c1=O` [theophylline], where the note is “100 μM”, the secretion of insulin entry is “promoted”. For the same molecule, where the note is “10 mM theophylline control, 3.3 mM or 16.7 mM glucose, FIGS. 14-16”, the “amount (insulin, C-peptide) secreted by islets in medium containing theophylline versus medium without” value is “similar”. For the molecule `CCCCNC(=O)NS(=O)(=O)c1ccc(C)cc1` [tolbutamide], the secretion of insulin result (10 μM) is on record as “promoted”. Consider `C[N+](C)(C)CCOC(N)=O` [carbachol], for which the secretion of insulin result (100 μM) was “promoted”. In the case of `CC(C)Cn1c(=O)n(C)c(=O)c2[nH]cnc21` [IBMX], for the setting “100 μM”, the secretion of insulin result was “promoted”.
